In data set [1] the test system is SW480. Kind of data set: Cell death IC50, Annexin V-FITC/PI flow cytometry. It is filed as cell-based. The settings on record: Homo sapiens, read-out: IC50 SW480. How it is done: (§1) The cells were seeded in a 6-well plate at density 5.105 cells/well and cultured overnight. The cells were then treated with various concentration (15, 30, 100, 500, 1000 and 10.000 nM) of salinomycine, AM5 and AM23 for 72 h, 96 h and 108 h. After treatment, cell death was quantified using Annexin V-FITC/Propidium Iodide (PI) assay according to the manufacturer's protocol (FITC Annexin V Apoptosis Detection Kit II, 556570, BD Pharmingen™) and analyzed by a LSRFortessa™ flow cytometer (BD Bioscience, San Jose, Calif.). The data were processed using Cell Quest software (BD Biosciences). Dose-response cell death curves were determined for indicated time.
(§2) For tumor cells, the cells are classified in function of their sensitivity of drugs. Here, the most sensitive cells are incubated for 72 h, the middle sensitive cells for 96 h and the less sensitive or resistant cells are incubated for 108 h with drug at several concentrations.
(§3) Concentrations of 30 nM, 500 nm and 1 μM were used for determining the IC50 of drugs.
(§4) Intervals][…]] mean that IC50 is included in this interval with exclusion of the valor 30 nM.
(§5) The SW620 and SW480 cell lines are from colon tumors.
For orientation: A flow cytometer gives signals particle by particle.

Data set [2] concerns SW620. Kind of data set: Cell death IC50, Annexin V-FITC/PI flow cytometry. It is filed as cell-based. To be noted: Homo sapiens, read-out: IC50 SW620. How it is done: as §1, §2, §3, §4, §5
Data set [3] in a line: Toxicity assessment (histology, body weight). To be noted: effective dose. Format: in vivo, mice. An excerpt:
FIG. 15 is a graph representing the mice body-weight during treatment with AM5. Error bars for mice body weight represent s.d. and correspond to correspond to five animals per group.
Histology. Organs from mice were removed at time of sacrifice. For morphological analyses, organs were fixed with 4% paraformaldehyde, paraffin embedded, and 4-μm sections were stained with hematoxylin and eosin (H&E). Sections were scanned at high resolution using a slide scanner (NanoZoomer 2.0-HT, Hamamatsu, Massy, France).

In data set [4] the test system is MCF-7 xenograft. The data set is described as follows: Xenograft tumor formation. The settings on record: 3 mg per kg body weight per day, intra peritoneal. Format: in vivo, mice. How it is done: Human breast cancer cell line MCF-7 cells cultures were collected, enzymatically dissociated, washed in PBS, and resuspended in PBS/Matrigel mixture (1:1 volume). 0.1 ml of this mixture was then implanted in the mammary fat pad of 5-week-old female AthymicNude-Fox1nu mice (Harlan, France). The mice were maintained in individually-ventilated cages (Tecniplast, France) under constant temperature and humidity; all experiments were performed under laminar flow (Tecniplast France). The mice received estradiol supplementation (0.4 mg/kg) in the same day and 7th day from cell injection, and were observed and palpated for tumor appearance. The mice received Salinomycine analogue (here AM5, 3 mg per kg body weight per day, intra peritoneal injection) every 5 opened days of the week for 33 days. Tumor growth was measured weekly using calipers. Tumor volume was determined using the standard formula: L×W2×0.52, where L and W are the longest and shortest diameters, respectively. […]
Xenograft tumor formation experiments: MCF-7 cell cultures were collected, enzymatically dissociated, washed with PBS, and re-suspended in a PBS/Matrigel mixture (1:1 v/v). […] Tumor growth was measured weekly using calipers. Tumor volume was determined using the standard formula: L×W2×0.52, where L and W are the longest and shortest diameters, respectively. […]

Data set [5] relates to Cell lines. Kind of data set: Apoptosis by Annexin V-FITC and PI staining with or without NAC. It is filed as cell-based. The settings on record: 500 nM, 48 h. How it is done:
FIG. 5: Salinomycine analogue—induced cell death is inhibited by the ROS scavenger N-acetylcysteine (NAC). Cell lines were incubated with or without 500 nM of Sal analogues for 48 h. Apoptosis was evaluated by Annexin V-FITC and PI staining, and FACS analysis. All data are expressed as means±s.d. from three individual experiments (*; P<0.05)
Salinomycine analogue-induced cell death is inhibited by the ROS scavenger N-acetylcysteine (NAC). Cell lines were incubated with or without 500 nM of Sal analogues for 48 h. Apoptosis was evaluated by AnnexinV-FITC and PI staining, and FACS analysis.

In data set [6] the test system is TICs. To be noted: cited from earlier work.
Data set [7] concerns HMLER CD24low cells. The data set is described as follows: Intracellular sodium measurement (SBFI-AM). Format: cell-based, Human. To be noted: 5 min treatment. How it is done:
Intracellular sodium measurement: Sodium and potassium buffers (10 mM HEPES, 1 mM CaCl2, 1 mM MgCl2, 130 mM Sodium-D-Gluconate or Potassium-D-Gluconate, 30 mM NaCl/KCl) were mixed at different ratios to produce five buffers with various sodium concentrations (0, 20, 40, 80, 160 mM). Nigericin (N7143, Sigma, 10 μM) and monensin (M5273, Sigma, 10 μM) were used to equilibrate the intracellular sodium concentration and establish a calibration curve. HMLER CD24low cells were harvested and re-suspended in ECS buffer (15 mM HEPES, 5.4 mM KCl, 140 mM NaCl, 10 mM Glucose, 1 mM MgCl2, 1.8 mM CaCl2, 0.1% BSA, pH 7.6) containing 10 μM of the sodiumspecific probe (SBFI-AM, S-1263, Molecular Probes®) and 0.2% Pluronic F-127 (P2443, Sigma) and were incubated for 1 h in the dark at 37° C. Then, cells were washed to remove excess dye and incubated for an additional 30 min in ECS buffer. […] Each well was sequentially excited at 340 and 370 nm and emission was recorded at 500 nm. The spectral response of SBFI upon sodium binding was assessed by excitation ratio measurement (340/370 nm). Measurements were performed on a Perkin Elmer Wallac 1420 Victor2 Microplate Reader at 37° C.

“Also recorded” adds a separate entry of the source. Read-outs that look alike come from different tables or passages of the source.

Take `C#CCN[C@@H]1C=C[C@]2(O[C@H]([C@@H](CC)C(=O)[C@@H](C)[C@@H](O)[C@H](C)C3O[C@@H](C(CC)C(=O)O)CC[C@@H]3C)[C@@H](C)C[C@H]2C)O[C@@]12CC[C@@](C)([C@H]1CC[C@](O)(CC)[C@H](C)O1)O2` (stereo partly drawn) [AM5, Sal-Propargylamine]: the half-maximal inhibitory concentration (IC50) – broadly, the point on the concentration scale where inhibition reaches its midpoint – was 30 to 500 nM in data set [1] (SW480, 3rd sensibility (108 h), colon tumor cells) and 30 to 500 nM in data set [2] (SW-620, 3rd sensibility (108 h), colon tumor cells). In data set [3], the “body weight throughout treatment” value is reported as “constant body weight”. The “generic toxicity (integrity of peripheral tissues)” value in data set [3] (H&E histology) is “No generic toxicity was observed”. Besides, in data set [4] (33 days), the “tumor volume and tumor weight” value is given as “lower”. Moreover, the tumor growth entry in data set [4] (MCF-7 xenograft-bearing mice) is “inhibits breast cancer tumor growth; also recorded: prevented tumor growth”. Further, the “cell death (apoptosis) mechanism” value in data set [5] is reported as “induce cell death through lysosomal ROS production”.

`CCC(C(=O)O)[C@H]1CC[C@H](C)C([C@@H](C)[C@H](O)[C@H](C)C(=O)[C@H](CC)[C@H]2O[C@]3(C=C[C@@H](O)[C@]4(CC[C@@](C)([C@H]5CC[C@](O)(CC)[C@H](C)O5)O4)O3)[C@H](C)C[C@@H]2C)O1` (stereo partly drawn) [Salinomycine, Salinomycin]: the concentration for half-maximal inhibition (IC50) in data set [1] (SW480, 108 h) fell in the range of 30 to 500 nM; in data set [2] (SW-620, 108 h) it was 500 to 1000 nM. The “efficacy in reducing the amount of TICs relative to paclitaxel” value in data set [6] is 100 fold. For the same molecule, the “cell death (apoptosis) mechanism” value in data set [5] is on record as “induce cell death through lysosomal ROS production”. The intracellular sodium entry in data set [7] is on record as “induced a fast increase in intracellular sodium”.

The values are drawn from US10287298B2, “Nitrogen-containing analogs of salinomycin, synthesis and use against cancer stem cells and malaria” (Centre National de la Recherche Scientifique (CNRS), priority 2014, dated 2019).
